Legend:
Assay type in all cases: in vivo, rat
Conditions in all cases: 300 mg/Kg p.o.
male rats (SPF) [1] = assay: Aspirin-inducted gastric mucosa damage test
Description: (§1) administration route: oral administration applied dose: 5 mL/Kg administration means: administered by using a disposable injection cylinder and a sonde for oral administration administration time: administered 60 minutes before the preparation of a gastric mucosa damaged model
(§2) After about 24 hours of fasting, the rats were put into a stress cage (manufactured by Natsume Seisakusho Co., Ltd.), and the cage was immersed in a water tank at 23° C. 6 hours after that, the blood was removed from the rats to kill them under anesthesia with pentobarbital sodium (40 mg/Kg, i.p.), and the stomachs of these rats were extracted. 10 mL of a 1% formalin solution was injected into the stomachs to immerse them in the solution for 10 minutes or more. The stomachs were cut open along the greater curvature to measure the length (mm) of a damage by a stereomicroscope. The total of damages of each rat was taken as the damage coefficient of the rat.
An aspirin-inducted gastric mucosa damage test was conducted on male rats (SPF) by using the composite magnesium oxide particles obtained in Example 5. For comparison, magnesium oxide manufactured by Kyowa Chemical Industry Co., Ltd. was used.
After about 24 hours of fasting, 125 mg/Kg of aspirin (62.5 mg/mL: suspended by using a methylcellulose aqueous solution) was orally administered to each rat twice every 2 hours. […]

male rats (SPF) [2] = assay: Indometacin-inducted gastric mucosa damage test
Description: as §1, §2
An indometacin-inducted gastric mucosa damage test was conducted on male rats (SPF) by using the composite magnesium oxide particles obtained in Example 5. For comparison, magnesium oxide manufactured by Kyowa Chemical Industry Co., Ltd. was used.
After about 24 hours of fasting, 30 mg/Kg of indometacin (15 mg/mL: suspended by using a 0.5% methylcellulose aqueous solution) was subcutaneously administered to each rat. […]

male rats (SPF) [3] = assay: Water immersion stress gastric mucosa damage test
Description: A water immersion stress gastric mucosa damage test was conducted on male rats (SPF) using the composite magnesium oxide particles obtained in Example 5. For comparison, magnesium oxide manufactured by Kyowa Chemical Industry Co., Ltd. was used.
as §1, §2

male rats (SPF) [4] = assay: Ethanol-inducted gastric mucosa damage test
Description: as §1, §2
An ethanol-inducted gastric mucosa damage test was conducted on male rats (SPF) by using the composite magnesium oxide particles obtained in Example 5. For comparison, magnesium oxide manufactured by Kyowa Chemical Industry Co., Ltd. was used.
After about 24 hours of fasting, 1 mL of ethanol (99.5%) was orally administered to each rat. […]

male rats (SPF) [5] = assay: Gastric ulceration test (acetic acid ulceration models)
Description: The influence of the composite magnesium oxide particles obtained in Example 3 upon gastric ulceration was investigated using male rats (SPF). For comparison, magnesium oxide particles (MgO) manufactured by Kyowa Chemical Industry Co., Ltd. were used. The rats were abdominally operated under anesthesia with pentobarbital sodium (10 mg/Kg, i.p.), 30 μL of 20% acetic acid was injected into the submucosal coat at the boundary between the body of stomach and the vestibular region of the pyloric from the serosal side to prepare acetic acid ulceration models. […] On the day following the last administration, the stomachs of the models were extracted under anesthesia with pentobarbital sodium (40 mg/Kg, i.p.) to measure the long diameter and short diameter (mm) of an ulcer.

[O]=[Mg] [Comparative example, magnesium oxide]
Damage coefficient (Lesions) (male rats (SPF) [1]; aspirin 125 mg/Kg orally twice, 4 hours after second, 6 rats): 27.8 ± 4.3 mm
Inhibition ratio (male rats (SPF) [1]; aspirin-inducted): 43%
Damage coefficient (Lesions) (male rats (SPF) [2]; indometacin 30 mg/Kg s.c., 5 hours, 6 rats): 0.0 ± 0.0 mm
Inhibition ratio (male rats (SPF) [2]; indometacin-inducted): 100%
Damage coefficient (Lesions) (male rats (SPF) [3]; 60 min before, water immersion stress 23° C., 6 hours, 6 rats): 18.1 ± 3.6 mm
Inhibition ratio (male rats (SPF) [3]; water immersion stress): 56%
Damage coefficient (Lesions) (male rats (SPF) [4]; 1 mL ethanol (99.5%) orally, 1 hour, 6 rats): 25.5 ± 8.9 mm
Inhibition ratio (male rats (SPF) [4]; ethanol-inducted): 48%
Inhibition ratio of gastric lesion (male rats (SPF) [5]): 19%
Damage coefficient (Lesions area) (male rats (SPF) [5]; once each day for 10 days, 6 rats): 5.2 ± 1.0 mm^2

Source: US20100260852A1, “LAXATIVE AGENT” (priority 2007, published 2010)
